Measured values as given in publication PMC12186255, “Discovery and Characterization of Small Molecule Inhibitors Targeting Exonuclease 1 for Homologous Recombination-Deficient Cancer Therapy” (ACS Chemical Biology, 2025).
“Also recorded” adds a separate entry of the source.

Assays:
EXO1 R92A = target: T1, EXO1 R92A (Homo sapiens, UniProt Q9UQ84, R92A); test: In vitro exonuclease activity of mutant with inhibitors; format: biochemical; conditions: EXO1 25 nM, DNA substrate 250 nM; C200 0-5 μM, F684 10-40 μM
T1 construct: The N-terminal domain of human EXO1 (hEXO1) (residues 1–345) was cloned into the pET28b vector; made in house; host or cells: E. coli BL21(DE3) and Rosetta 2(DE3)
T1 sequence (Q9UQ84 1-345 R92A): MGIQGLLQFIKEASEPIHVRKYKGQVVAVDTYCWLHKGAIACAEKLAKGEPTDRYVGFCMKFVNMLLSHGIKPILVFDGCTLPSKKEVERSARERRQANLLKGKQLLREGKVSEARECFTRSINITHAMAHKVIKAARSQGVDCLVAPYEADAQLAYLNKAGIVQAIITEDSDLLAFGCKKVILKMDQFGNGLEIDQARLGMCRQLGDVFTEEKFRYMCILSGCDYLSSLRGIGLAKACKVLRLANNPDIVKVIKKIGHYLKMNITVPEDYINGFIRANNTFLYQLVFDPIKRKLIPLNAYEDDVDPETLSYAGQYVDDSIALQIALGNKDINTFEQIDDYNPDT
Procedure: Simultaneously, we tested the effect of each point mutation on the in vitro exonuclease activity. Most mutations in site 1 result in some loss of enzymatic activity compared to WT EXO1 (Figure S13; WT:Figure S13a), particularly K85A and D225A (Figure S13b,f). […] However, at concentrations of 20 and 40 μM, the mutants (K85A and R92A) behaved more like WT (Figure b).
In both panels a and b, DMSO without inhibitors was used as a control, and its relative binding activity was set equal to 1.0. The EXO1 enzyme concentration was 25 nM, and the DNA substrate concentration was 250 nM. The values shown are the mean ± S.D. of three independent experiments.
The N-terminal domain of human EXO1 (hEXO1) (residues 1–345) was cloned into the pET28b vector. The following mutations were introduced via site-directed mutagenesis based on the findings of molecular docking analysis: K85A, E89A, R92A, I125A, D225A, K292A, and K294A (oligonucleotide primers listed in Table S1) following the established protocol.

U2OS cells = test: Homologous recombination assay (HR-GFP reporter); format: cell-based, human; conditions: I-SceI, 0, 10, 50, 100 μM, 48 h
Procedure: Following viral infection, the culture medium was replaced with a fresh medium containing small molecule inhibitors. […] Subsequently, cells were harvested, and GFP-positive frequencies indicative of HR repair events were quantified using a CyAn ADP Analyzer (Beckman Coulter, Inc.). Experiments were performed in triplicate, and data are presented as mean ± standard deviation (S.D.).

MDA-MB-436 cells = test: S-phase PARylation immunofluorescence; format: cell-based, human; conditions: MDA-MB-436 BRCA1− and BRCA1+ cells, 10 or 50 μM overnight
Procedure: (b) Quantification of the relative PARylation per nucleus from panel a. […] Strong PARylation foci are observed in BRCA1– cells. […] (d) Quantification of the relative PARylation per nucleus from panel c.
Cells were seeded at a density of 3× 10^5 cells per well in 12-well plates with preplaced coverslips and treated with or without various inhibitor treatments overnight. Cells were then incubated with EdU for 30 min before collection. For PARylation analysis, cells were permeabilized with 0.1% Triton X100, fixed with 4% paraformaldehyde, blocked with the Image-iT FX signal enhancer (Invitrogen), and incubated (1.5 h, RT) with the indicated primary antibodies (PAR/pADPr Antibody; Biotechne). The cells were then washed with PBS buffer and incubated (1 h, RT) with the corresponding secondary antibodies (1:200, Invitrogen). Subsequently, the fixed cells were incubated with the Click-iT reaction mix (100 mM Tris-HCl pH 8.5, […], 1 mM CuSO4, and 100 mM ascorbic acid (Sigma-Aldrich)) for 1 h at RT. The slides were then washed with the PBS buffer, counterstained with DAPI, and analyzed with a fluorescence microscope (Zeiss Observer Z1). […] The slides were then washed with the PBS buffer, incubated with the Click-iT reaction mix for EdU as aforementioned, counterstained with DAPI, and analyzed with a fluorescence microscope (Zeiss Observer Z1).

MDA-MB-231 cells = test: Gel-based phospho-RPA end resection assay; format: cell-based, human; conditions: inhibitor overnight then 2 μM CPT 2 h, C5 10 μM
Procedure: The levels of RPA32 and phosphorylated RPA32 (S33) were analyzed by Western blotting using antibodies against RPA32 and phosphorylated RPA32 (S33). The total level of tubulin was used as a control. (b) Ratio of P-RPA:RPA levels calculated from panel a. […] U2OS cells carrying a GFP reporter for HR were infected with adenovirus expressing the I-SceI restriction enzyme. […] U2OS cells carrying a GFP reporter for HR were infected with adenovirus expressing the I-SceI restriction enzyme. […] For panels c and d, after 48 h, the cells were harvested, and the GFP-positive cells were analyzed by flow cytometry. Values are the mean ± S.D. of three independent experiments.
The treated cells were then lysed in the SDS-PAGE sample buffer, and the lysate was separated by SDS-PAGE prior to immobilization on a nitrocellulose membrane and Western blotting. Antibodies against unphosphorylated RPA, S33-P-RPA2, and tubulin were subsequently assayed according to the manufacturer’s recommendations. The ratio of P-RPA/RPA levels were quantified via ImageJ.

EXO1 = target: T2, EXO1 (Homo sapiens, UniProt Q9UQ84); test: Inhibitor kinetics by FRET-based EXO1 assay (Michaelis-Menten, Lineweaver-Burk); format: biochemical; conditions: for V max: Michaelis–Menten plot; for mechanism of EXO1 inhibition: from Michaelis–Menten and Lineweaver–Burk plots
T2 construct: made in house
T2 sequence (Q9UQ84 1-846): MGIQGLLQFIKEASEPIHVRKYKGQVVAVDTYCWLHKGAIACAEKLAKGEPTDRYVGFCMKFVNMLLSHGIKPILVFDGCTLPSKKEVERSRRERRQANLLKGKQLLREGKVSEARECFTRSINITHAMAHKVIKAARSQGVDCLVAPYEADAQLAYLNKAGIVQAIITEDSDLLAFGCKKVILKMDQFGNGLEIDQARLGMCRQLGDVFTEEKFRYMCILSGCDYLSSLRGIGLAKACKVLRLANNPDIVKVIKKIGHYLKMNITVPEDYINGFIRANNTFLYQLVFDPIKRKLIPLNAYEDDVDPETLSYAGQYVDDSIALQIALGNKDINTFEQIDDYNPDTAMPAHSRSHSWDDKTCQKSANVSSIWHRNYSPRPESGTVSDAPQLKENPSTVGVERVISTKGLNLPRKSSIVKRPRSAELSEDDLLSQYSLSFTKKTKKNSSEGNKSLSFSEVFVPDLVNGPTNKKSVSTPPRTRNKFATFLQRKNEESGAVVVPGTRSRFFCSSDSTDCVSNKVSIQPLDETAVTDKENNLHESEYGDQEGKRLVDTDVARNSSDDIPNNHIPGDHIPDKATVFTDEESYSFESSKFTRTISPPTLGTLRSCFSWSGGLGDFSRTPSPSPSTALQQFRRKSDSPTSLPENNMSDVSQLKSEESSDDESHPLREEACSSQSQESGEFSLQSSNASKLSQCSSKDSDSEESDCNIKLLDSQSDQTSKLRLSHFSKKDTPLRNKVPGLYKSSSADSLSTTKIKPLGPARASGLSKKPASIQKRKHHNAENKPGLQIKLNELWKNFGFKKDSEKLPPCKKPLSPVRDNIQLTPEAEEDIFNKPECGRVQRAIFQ
From the text: We then calculated the initial velocity of enzyme activity by calculating the rate within the linear region of the time-dependent RFU.
The initial velocity of enzyme activity was obtained by calculating the rate of the linear region of the time-dependent RFU.

Structure (SMILES) | inhibitory activity against EXO1 R92A mutant vs WT (EXO1 R92A) | HR frequency (GFP-positive cells) (U2OS cells) | S-phase PARylation (MDA-MB-436 cells) | CPT-induced P-RPA levels (DNA end resection) (MDA-MB-231 cells) | V max (EXO1; 2 μM C200) [min^–1] | mechanism of EXO1 inhibition (EXO1) | IC50 (EXO1; kinetic assays, read-out: IC50 of each compound, used as fixed inhibitor concentration) [nM] | V max (EXO1; […] μM F684) [min^–1]
COC(=O)c1nc(-c2ccc(OC)cc2)nc(O)c1O [C200] | partially lost its inhibitory effect; also recorded: abolished | no significant changes | no effect | significantly reduced | 415.5 | uncompetitive mechanism | 2000 | –
Cc1cccc(N2CCN(c3ccc(NS(=O)(=O)c4ccccc4)c(C(=O)O)c3)CC2)c1C [F684] | partially lost its inhibitory effects; also recorded: abolished | inhibition of HR that increased with dose | additive effect | significantly reduced | – | uncompetitive mechanism | – | 114.1
